The text below walks through data of US5445832A, “Process for the preparation of microspheres made of a biodegradable polymeric material” (priority 1991, dated 1995).

The nature of this data set: Solubility of the peptide pamoate in water. It counts as physicochemical. Conditions: in H2O at 40° C. The procedure:
(pyro)Glu-His-Trp-Ser-Tyr-D-Trp-Leu-Arg-Pro-Gly-NH2 were converted into the corresponding pamoate, using conventional techniques. After comminution, this salt appears as formed of microparticles of an amorphous structure with an average particle size of approximately 10 microns. Solubility: lesser than 0.025 mg/ml in H2 O at 40° C.

In turn, `CC(C)C[C@H](NC(=O)[C@@H](Cc1c[nH]c2ccccc12)NC(=O)[C@H](Cc1ccc(O)cc1)NC(=O)[C@H](CO)NC(=O)[C@H](Cc1c[nH]c2ccccc12)NC(=O)[C@H](Cc1c[nH]cn1)NC(=O)[C@@H]1CCC(=O)N1)C(=O)N[C@@H](CCCNC(=N)N)C(=O)N1CCC[C@H]1C(=O)NCC(N)=O` [pamoate of D-Trp6-LHRH, (pyro)Glu-His-Trp-Ser-Tyr-D-Trp-Leu-Arg-Pro-Gly-NH2] showed a solubility of less than 25 µg/mL.

As usually defined, the solubility is the dissolved amount per volume that the medium holds. High values mean a readily soluble substance, low ones a poorly soluble substance.
